What was measured:
[1] = tested on: Chinese hamster V79 lung fibroblasts; assay: Radiation survival of aerobic V79 cells, clonogenic assay; type: cell-based
Description: (§1) Chinese hamster V79 lung fibroblasts were cultured in F12 medium supplemented with 10% fetal calf serum and antibiotics. […] The assay system was specifically designed to evaluate radiation sensitivity of cells exposed to radiation under both aerobic and hypoxic conditions (Mitchell et al., Radiat. Res., 96, 422-428 (1983); Russo et al., Radiat. Res., 103, 232-239 (1985); and DeGraff et al., Int. J. Radiat. Oncol. Biol. Phys., 16, 1021-1024 (1989)).
(§2) When cultured cells were exposed to DEA/NO in subsequent examples, DEA/NO in F12 medium with 10 mM HEPES buffer, pH 7.0, was used. […] Control cells in subsequent examples were exposed to 0.02N NaOH, instead of DEA/NO.
(§3) Following irradiation, the various cell suspensions were pipetted, counted, diluted, and plated for macroscopic colony formation. Each dose determination was plated in triplicate and experiments were repeated a minimum of two times. Plates were incubated for seven days, after which colonies were fixed with methanol/acetic acid (3:1), stained with crystal violet, and counted. Colonies containing >50 cells were scored and graphed as FIGS. 1-3. Error bars in the graphs represent the standard deviation of the mean and are shown when larger than the symbol used to designate a data point. Survival curve data were fitted using a linear quadratic model of Albright (Radiat. Res., 112, 331-340 (1987)), and the survival curves shown in the figures represent the best fit curves for the experimental data points. Sensitizer enhancement ratios (SER) were calculated by dividing the radiation dose for control hypoxic conditions by the radiation dose for various agents under hypoxic conditions at the 1% surviving fraction level.

[2] = tested on: Chinese hamster V79 lung fibroblasts; assay: Radiation survival of hypoxic V79 cells (metabolism-mediated oxygen depletion), clonogenic assay, SER; type: cell-based; conditions: hypoxic; for SER: 1% surviving fraction level
Description: as §1, §2
The induction of hypoxia in dense cell suspensions by metabolism-mediated oxygen depletion was carried out as described by Mitchell et al. (supra) and Phillips et al. (Int. J. Radiat. Oncol. Biol. Phys., 12, 1627-1635 (1986)). Briefly, stock cultures of exponentially growing Chinese hamster V79 lung fibroblasts in 850 cm^2 roller bottles were trypsinized, rinsed with medium, and counted. Samples of 10^8 cells were then placed in 15 ml centrifuge tubes, centrifuged at 1,000 rpm for 5 min at 25° C., and rinsed once with medium or medium containing DEA/NO (final concentrations ranging from 0.1-2.0 mM), nitrite, diethylamine, or DEA/NO that had been allowed to decompose in full medium overnight at 37° C.
The cell suspension was taken up into a 3 ml glass syringe with a 18 gauge spinal needle. Air bubbles were removed, and a 25 gauge needle was fitted onto the syringe. The syringe was rotated by hand at room temperature for 20 min to allow for cellular metabolic oxygen consumption. The syringe was then placed in a lucite block and irradiated. After a given dose of radiation, 1-3 drops of cell suspension were discarded, and 1-2 drops were collected in tubes containing drug-free medium. In this manner an entire hypoxic survival curve for a given treatment condition can be obtained from a single syringe.
Hypoxic Chinese hamster V79 lung fibroblasts of Example 2 were irradiated at room temperature with 4 MeV photons from a linear accelerator at a dose rate of 1.5 Gy/min. Full electron equilibrium was ensured for all irradiations.
as §3
(§4) Radiation survival curves for V79 cells exposed to varying concentrations of DEA/NO and various DEA/NO decomposition products under hypoxic conditions (metabolic hypoxia induction) are shown in FIG. 1A, which is a graph of the surviving fraction versus dose (Gy).

[3] = tested on: Chinese hamster V79 lung fibroblasts; assay: Cytotoxicity of the agents alone to V79 cells, clonogenic assay; conditions: no radiation
Description: as §1, §2
as §4, with “(Gy). Lines in FIG. 1A represent control (.circle-solid.) and 0.1 mM (Δ), 0.5 mM (.largecircle.), 1.0 mM (.quadrature.), and 2.0 mM (.box-solid.) DEA/NO. Survival curves were corrected for drug cytotoxicity as appropriate.” for “(Gy).”
DEA/NO (2.0 mM) was allowed to decompose to liberate NO in medium maintained at 37° C. overnight in a flask open to the air for use as an additional control. The medium containing the DEA/NO decomposition products was then used to evaluate possible effects on radiosensitization.

[4] = tested on: human MCF7 breast cancer cells; assay: Chemosensitization of human breast cancer cells to melphalan or thiotepa, clonogenic assay; conditions: 1 hr, 37° C.; for DEA/NO enhancement ratio at the 10% surviving fraction level: 1 mM DEA/NO
Description: FIG. 10 is a graph of surviving fraction versus concentration (μg/ml) of melphalan in the absence or presence of 1 mMDEA/NO or released DEA/NO showing the survival curves for human MCF7 breast cancer cells exposed to melphalan in the absence or presence of 1 mM DEA/NO or released DEA/NO.
FIG. 11 is a graph of surviving fraction versus concentration (μg/ml) of thiotepa in the absence or presence of 1 mM DEA/NO or released DEA/NO showing the survival curves for human MCF7 breast cancer cells exposed to thiotepa in the absence or presence of 1 mM DEA/NO or released DEA/NO.
as §1
Human breast cancer cells in log phase were exposed for 1 hr at 37° C. to varying concentrations of melphalan or thiotepa in the absence or presence of 1 mM DEA/NO or released DEA/NO. […] Cytotoxicity was evaluated using the clonogenic assay of Example 2.
FIGS. 10 and 11 are graphs of surviving fraction versus concentration (μg/ml) of melphalan and thiotepa, respectively.

C3H mice = assay: Protection of mice from whole body irradiation; type: in vivo
[5] = tested on: Chinese hamster V79 fibroblasts; assay: Chemosensitization of V79 cells to bioreductive agents (mitomycin C, SR 4233)

SMILES: CCN(CC)/[N+]([O-])=N/[O-].[Na+] [DEA/NO]
- enhancement of aerobic radiosensitivity at the 1% survival level ([1]; 2.0 mM): 1.3
- effect on aerobic radiosensitivity ([1]; 0.5 and 1.0 mM): had no effect on aerobic radiosensitivity
- extent of radiosensitization ([2]; 0.1 mM): modest
- SER ([2]; 0.10 mM, ± SD): 1.1 ± 0.06
- SER ([2]; 0.50 mM, ± SD): 2.1 ± 0.40
- SER ([2]; 1.00 mM): 2.4
- effectiveness in eliminating radiation resistance due to hypoxia ([2]; 2.0 mM): just as effective as oxygen in eliminating radiation resistance due to hypoxia
- SER ([2]; 2.00 mM, ± SD): 2.9±0.4
- extent of radiosensitization ([2]; 0.5 and 1.0 mM): significant enhancement was observed
- cytotoxicity of treatment alone ([3]; 2 mM): minimal cytotoxicity
- cytotoxicity of treatment alone ([3]; 0.1-1.0 mM): not cytotoxic
- enhancement of chemosensitivity / cytotoxicity ([4]; melphalan and thiotepa, 1 mM): significantly enhanced the chemosensitivity of human breast cancer cells to melphalan and thiotepa
- DEA/NO enhancement ratio at the 10% surviving fraction level ([4]; melphalan): 3.3
- DEA/NO enhancement ratio at the 10% surviving fraction level ([4]; thiotepa): 1.3
- Percent survival of mice at 30 days (C3H mice; 700 cGy, 80 mg/kg i.p. 10 min before): 100%
- Percent survival of mice at 30 days (C3H mice; 700 cGy, 80 mg/kg i.p. 30 min before): 100%
- Percent survival of mice at 30 days (C3H mice; 800 cGy, 80 mg/kg i.p. 10 min before): 100%
- Percent survival of mice at 30 days (C3H mice; 800 cGy, 80 mg/kg i.p. 30 min before): 90%
- Percent survival of mice at 30 days (C3H mice; 900 cGy, 80 mg/kg i.p. 10 min before): 77%
- Percent survival of mice at 30 days (C3H mice; 900 cGy, 80 mg/kg i.p. 30 min before): 80%
- Percent survival of mice at 30 days (C3H mice; 1000 cGy, 80 mg/kg i.p. 10 min before): 44%
- Percent survival of mice at 30 days (C3H mice; 1000 cGy, 80 mg/kg i.p. 30 min before): 10%
- enhancement of hypoxic cytotoxicity of SR 4233 ([5]; 25 μm SR 4233, 1 mM, hypoxic, 1 hr): enhance the hypoxic cytotoxicity of SR 4233
- enhancement of mitomycin C cytotoxicity ([5]; aerobic and hypoxic conditions): enhanced cytotoxicity under both aerobic and hypoxic conditions
